Measured values published in the METLIN SMRT retention time set (Domingo-Almenara et al. 2019).

Assay: gradient 5% acetonitrile 3 min, to 50% in 2 min, to 85% in 15 min, held 3 min, 100 µL/min
Settings: column: Zorbax Extend-C18 2.1 x 50 mm; eluents: water / acetonitrile, 0.1% formic acid
Outline: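 The system's dead and dwell volumes were 40 μL and 900 μL, with a Zorbax Extend-C18 column (2.1 × 50 mm, 1.8 μm) run at 100 μL/min in water and acetonitrile containing 0.1% formic acid each. Pure standards were analyzed in mixtures of ~100 molecules by HPLC–quadrupole time-of-flight mass spectrometry in positive and negative ionization mode. Retention time was assigned from computationally picked, manually inspected adduct peaks.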

Structure (SMILES)	RP-LC retention time [s]
COc1cccc(CNC(=O)CCc2nc3c(C)cccc3c(=O)n2C)c1OC	791
CN(Cc1nc(-c2ccc(N3CCCC3)nc2)no1)C1CCCCC1	569
Cc1cc(Nc2ccc(NC(=O)c3sc(C)nc3C)cc2)nc(N2CCCC2)n1	583
Cc1cccc(CN2C[C@@H]3C(=O)N(Cc4ccc5c(c4)OCO5)C(=O)[C@@H]3C2)c1	734
CN(C)S(=O)(=O)c1ccc(-c2nnc(C(=O)NCc3ccccc3F)o2)cc1	840
Cc1ccc(-c2noc(C3CCCN3C(=O)c3ccc(C(C)C)cc3)n2)cc1 (configuration not stated)	1210
COc1cc(Cl)c(NC(=O)C2CCCN(c3nc4ccccc4nc3OC)C2)c(OC)c1 (configuration not stated)	1250
O=C(Cn1nc2n(c1=O)CCCC2)Nc1ccc(F)cc1	651
COc1ccc(CC(=O)N2CCC3(CC2)NC(=O)c2cc(C)ccc2N3C)cc1	769
CCn1c(=O)n(Cc2ccccc2Cl)c(=O)c2cnc(-c3ccc(OC)cc3)nc21	1010
Cc1cc(C)c2c(n1)sc1c(N3CCC(C(=O)N4CCN(c5ccccn5)CC4)CC3)ncnc12	668
COc1ccc(-n2ncc3c(=O)n(Cc4nc(-c5cccc(C(F)(F)F)c5)no4)cnc32)cc1	1130
NC(=O)CSc1nnc(-c2ccncc2)o1	486
O=C(NCc1ccc2c(c1)OCO2)C1CCCN(c2nn3c(=O)c4c(nc3s2)CCCC4)C1 (configuration not stated)	719
CCN(CC)S(=O)(=O)c1ccc(C)c(-c2nnc(-c3ccc(F)cc3)o2)c1	1100
COc1ccc(OC)c(CNC(=O)CN2C(=O)CSc3cccn3-c3ccccc32)c1	914
COC(=O)c1ccccc1NC(=O)c1ccc(-n2ccnc2)nn1	666
COc1ncc(C(=O)NCCc2ccc(Cl)cc2)cn1	788
Cc1nc2nc(-c3ccc(C(C)(C)C)cc3)nn2c(C)c1CC(=O)N1CCN(CCO)CC1	657
O=C(c1cn2c(n1)CSCC2)N(Cc1ccccc1)Cc1ccco1	736
Cc1nc(C)c(C(=O)N2CCC(Cc3noc(C4CC4)n3)C2)s1 (configuration not stated)	664
O=C(C1=CN(c2ccc3c(c2)CCC3)c2ccccc2S1(=O)=O)N1CCOCC1	850
CCOC(=O)c1ccc2ncc(C(=O)OCC)c(NCCN(C)C)c2c1	569
CS(=O)(=O)N1CCN(C(=O)C2CCCN(c3ccc(-c4ccc(F)cc4)nn3)C2)CC1 (configuration not stated)	611

More lines, now with the values ahead:

RP-LC retention time [s]	Structure (SMILES)
729	COCC(=O)Nc1cnc(-c2ccccc2)nc1
885	COc1ccccc1NS(=O)(=O)c1ccc2c(c1)C(=O)N(C)c1ncccc1O2
675	O=c1n(Cc2ccccc2)nc2ccc(S(=O)(=O)N3CCCC3)cn12
741	O=C(NCC1CCOCC1)Nc1ccccc1Cl
632	CCOc1ccc(N2CC(NC(=O)N3CCN(C(=O)c4ccco4)CC3)CC2=O)cc1 (configuration not stated)
874	Cc1ccc(N2CCC(NC(=O)NCc3ccc(F)cc3)C2=O)cc1C (configuration not stated)
836	Cc1cc(Nc2ccc(F)cc2)nc2nn(Cc3cc(=O)n4ccccc4n3)c(=O)n12
744	COc1ccc(C(=O)/C(Br)=C/C(=O)O)cc1
919	CSc1ccccc1NC(=O)Cc1cc(-c2ccc(F)cc2)on1
740	CCC(C)NC(=O)Cn1c(=O)c2cnc(-c3ccc(Cl)cc3)nc2n(CC)c1=O (configuration not stated)
932	COc1ccc(-n2ccc(=O)c(-c3nc(-c4ccc(C)cc4)no3)n2)cc1
702	O=S(=O)(c1cccc(C(F)(F)F)c1)N1CCC2(CCN(c3cccnc3)C2)C1 (configuration not stated)
555	COCCC(=O)N1CCC(N2C(=O)C(OC)C23CCOCC3)CC1 (configuration not stated)
